Legend:
[1] = tested on: macrophagic phospholipase D (PLD); conditions: cited from earlier work
Mtb specific T cells = assay: expansion of Mtb specific T cells after S1P administration to TB-infected macrophages; type: cell-based; conditions: S1P administered to TB-infected macrophages
dendritic cells = conditions: administered to dendritic cells in vitro; cited from earlier work
T cells = conditions: Jin et al., Blood 2003; cited from earlier work
Mtb-infected macrophages = conditions: cited from earlier work
[2] = tested on: Mycobacterium tuberculosis; conditions: human macrophages; concentration close to physiologic ones; cited from earlier work
M. tuberculosis (Erdman) = assay: S1P as adjuvant for BCG vaccine in mice (immunogenicity and protection protocol); conditions: protocol to be followed
[3] = tested on: Mycobacterium tuberculosis; conditions: MTB-infected mice, intravenously injected; cited from earlier work
[4] = tested on: macrophages and epithelial cells; assay: S1P given before infection: control of infection by macrophages and epithelial cells; type: cell-based; conditions: S1P administered before infection
[5] = safety of S1P administration in mice; conditions: levels at which immunoregulatory activity can be measured

In the case of `CCCCCCCCCCCCC/C=C/C(O)C(N)COP(=O)(O)O` [S1P, D-erythro-sphingosine 1-phosphate], the “PLD activity in macrophages” value [1] is given as “increase PLD activity in macrophages”, the “expansion of Mtb specific T cells” value (Mtb specific T cells) is given as “induces expansion of Mtb specific T cells” and the “secretion of cytokine profiles (Th1/Th2 responses)” value (dendritic cells) is given as “alter the secretion of cytokine profiles”. The “activation and proliferation of T cells” value (T cells) was “inhibit activation and proliferation of T cells”, the phagolysosomal fusion (Mtb-infected macrophages) was “promote phagolysosomal fusion” and the “antimicrobial activity / intracellular killing of TB” value [2] was “induce antimicrobial activity in human macrophages leading to the intracellular killing of TB”. The “properties as a vaccine adjuvant” value (M. tuberculosis (Erdman)) was “novel, unexpected and advantageous properties as a vaccine adjuvant”, the mycobacterial growth [3] was “significantly reduced” and the pulmonary tissue damage [3] was “significantly reduced”. The “capacity to control an infection” value [4] was “increases the capacity of macrophages and epithelial cells to control an infection” and the safety [5] was “appears safe”.

From patent US10092643B2, “Prophylactic and immunomodulatory compositions and uses” (Kherion Technology Limited, priority 2005, dated 2018)
